Test results published in patent US6037351A, “Method of inhibiting hepatitis B virus” (priority 1996, dated 2000).
Entries after “also recorded” stand apart in the source; their conditions may differ.

Key:
[1] = treatment of chronic hepatitis B; clinical tests suspended; cited from earlier work
[2] = system: cells; settings: cited from earlier work
[3] = system: hepatitis B virus (HBV); settings: previously reported; cited from earlier work
[4] = system: hepatitis B virus (HBV); assay: HBV secretion under tunicamycin; type: cell-based; settings: found by the present inventors
[5] = system: N-linked glycosylation of proteins; settings: cited from earlier work
[6] = system: α-glucosidase I; settings: N-linked oligosaccharide processing enzyme; cited from earlier work
[7] = system: α-glucosidase II; settings: N-linked oligosaccharide processing enzyme; cited from earlier work
[8] = system: mouse hepatitis virus (MHV); settings: appearance of E2 on the cell surface is delayed; cited from earlier work
[9] = system: HBV infection; settings: patients; cited from earlier work

## O=c1[nH]c(=O)n([C@@H]2O[C@H](CO)[C@@H](O)[C@@H]2F)cc1I [fialuridine]
[1]
  drug-related liver failure in patients: six of 20 patients

## tunicamycin
[2]
  toxicity to cells (in words): very toxic to cells
[3]
  HBV secretion from HBV infected or HBV-producing cells (in words): no significant reduction of HBV secretion; also recorded: normal HBV particle secretion
[4]; subviral particles
  secretion of subviral particles (in words): not subviral particles is inhibited
[4]; virions
  secretion of HBV virions (in words): inhibited
[5]
  N-linked glycosylation of proteins (in words): complete inhibition

## OC[C@H]1NC[C@H](O)[C@@H](O)[C@@H]1O [DNJ, 1,5-Dideoxy-1,5-imino-D-glucitol, reference compound]
[6]
  inhibition of α-glucosidase I (in words): known inhibitors
[7]
  inhibition of α-glucosidase II (in words): known inhibitors

## CN1C[C@H](O)[C@@H](O)[C@H](O)[C@H]1CO [N-methyl deoxynojirimycin]
[8]
  formation of mouse hepatitis virus (in words): inhibit the formation of mouse hepatitis virus (MHV)

## Alpha interferon
[9]
  treatment of HBV infection (in words): promising results in some patients
